# Laboratory results as given in publication PMC6718736, “Validation of in vitro methods for human cytochrome P450 enzyme induction: Outcome of a multi-laboratory study” (Toxicology in Vitro, 2019).
# Like-named read-outs stand apart in the source and are kept apart here.
# Assays:
# [1] = test system: CYP1A2; settings: cited from earlier work
# [2] = Solubility by nephelometry (EURL ECVAM); assay type: physicochemical
# Text: In addition to the visual inspection performed by the validation laboratories as described in the SOP, EURL ECVAM introduced nephelometry for systematic solubility determination of the 13 validation set chemicals. Nephelometry uses a laser beam and the principle of Tyndall effect light scatter to detect turbidity due to insolubility. The nephelometer method used formazin as reference item (1, 5, 10 and 20 nephelometric turbidity units (NTU)) to calculate the relative turbidity (RTU) of the validation set of chemicals. To the naked eye, 20 NTU is perceptible, while the nephelometer was sensitive to 5 NTU, with 1 NTU equivalent to background (solvent/medium blank).
# [3] = test system: CYP; settings: CYP isoforms induced; ref Abadie et al. (2009), Richert et al. (2010), Preissner et al. (2010), Hoffmann et al. (2014); cited from earlier work
# [4] = test system: CYP1A2; assay: CYP1A2 enzyme induction assay in cryopreserved HepaRG cells (phenacetin probe, LC/MS); assay type: in vitro ADME, human; settings: for Assigned classification CYP1A2: HepaRG; for Assigned classification CYP1A2: key: 1=Positive=inducer; 0=Negative=non-inducer
# [5] = test system: CYP3A4; assay: CYP3A4 enzyme induction assay in cryopreserved primary human hepatocytes (PHH); settings: for Assigned classification CYP3A4: PHH
# [6] = test system: CYP2B6; assay: CYP2B6 enzyme induction assay in cryopreserved HepaRG cells (bupropion probe, LC/MS); assay type: in vitro ADME, human; settings: for Prediction in vivo inducer: Cmax/F2 >0.5 criterion; for Assigned classification CYP2B6: HepaRG; for Assigned classification CYP2B6: key: 1=Positive=inducer; 0=Negative=non-inducer
# [7] = test system: CYP2B6; settings: cited from earlier work
# [8] = test system: CYP1A2; assay: CYP1A2 enzyme induction assay in cryopreserved primary human hepatocytes (PHH); assay type: in vitro ADME; settings: for Prediction in vivo inducer: Cmax/F2 >0.5 criterion; for Assigned classification CYP1A2: PHH;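 for Assigned classification CYP1A2: code 1 means positive inducer and 0 means non-inducer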
# [9] = cited from earlier work
# [10] = test system: CYP2B6; assay: CYP2B6 enzyme induction assay in cryopreserved primary human hepatocytes (PHH); assay type: in vitro ADME; settings: for Assigned classification CYP2B6: PHH;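 for Assigned classification CYP2B6: code 1 means positive inducer and 0 means non-inducer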
# [11] = test system: CYP3A4; settings: cited from earlier work
# [12] = test system: CYP3A4; assay: CYP3A4 enzyme induction assay in cryopreserved HepaRG cells (midazolam probe, LC/MS); assay type: in vitro ADME, human; settings: for Assigned classification CYP3A4: HepaRG; for Assigned classification CYP3A4: key: 1=Positive=inducer; 0=Negative=non-inducer
# [13] = Solubility by visual inspection (DMSO stock solution and assay medium); assay type: physicochemical; settings: assay medium
# Experimental: The SOPs relied on visual inspection for solubility observation. […] The absence of precipitation in the medium was checked pre- and post-incubation (24 hours) by centrifugation of the sample and observation of any precipitation (pellet residue).
# [14] = human in vivo, CYP named without remark = induced, ref references in the cell, Washington University database, Hoffmann et al. (2014), Pelkonen et al. (2008), Hukkanen et al. (2012)
compound,measurement,setting,value
O=C1NC(=O)C(c2ccccc2)(c2ccccc2)N1 [Phenytoin sodium],Induction in vivo,"[1]; CYP1A2, human, ref Table 1",Yes
same,CYP induction in vivo literature reference: CYP1A2,[1]; [14],CYP1A2
same,nephelometry finding in assay medium,"[2]; 40 μg/ml, the two media",insoluble suspensions
same,HepaRG medium stability,"[2]; ECVAM nephelometry, HepaRG medium, ^2 = solubility limit",40 µg/mL
same,PHH medium stability,"[2]; ECVAM nephelometry, PHH medium, ^2 = solubility limit",20 µg/mL
same,CYP induction in vitro (human hepatocytes),[3],"CYP1A2, CYP2B6, CYP3A4"
same,Prediction in vivo inducer,"[4]; CYP1A2, HepaRG cells, Cmax/F2 >0.5 criterion",Yes
same,F2,"[4]; CYP1A2, HepaRG cells, in vitro concentration producing 2-fold induction",36.5 µM
same,Induction in vitro,"[4]; CYP1A2, HepaRG cells, positive in one batch in each of the three laboratories",Yes
same,Assigned classification CYP1A2,"[4]; Lab 1, batch 20",1
same,Assigned classification CYP1A2,"[4]; Lab 1, batch 35",1
same,Assigned classification CYP1A2,"[4]; Lab 1, batch 36",1
same,Assigned classification CYP1A2,"[4]; Lab 2, batch 20",1
same,Assigned classification CYP1A2,"[4]; Lab 2, batch 35",1
same,Assigned classification CYP1A2,"[4]; Lab 2, batch 36",1
same,Assigned classification CYP1A2,"[4]; Lab 3, batch 20",1
same,Assigned classification CYP1A2,"[4]; Lab 3, batch 35",0
same,Assigned classification CYP1A2,"[4]; Lab 3, batch 36",1
same,F2,"[5]; CYP3A4, PHH",1.80 to 16.2 µM
same,Induction in vitro,"[5]; CYP3A4, PHH",Yes
same,Prediction in vivo inducer,"[5]; CYP3A4, PHH",Yes
same,Assigned classification CYP3A4,"[5]; Lab 1, batch 0 6 A",1
same,Assigned classification CYP3A4,"[5]; Lab 1, batch 4 0 8",0
same,Assigned classification CYP3A4,"[5]; Lab 1, batch 8 0 8",1
same,Assigned classification CYP3A4,"[5]; Lab 2, batch 0 6 A",1
same,Assigned classification CYP3A4,"[5]; Lab 2, batch 4 0 8",1
same,Assigned classification CYP3A4,"[5]; Lab 2, batch 8 0 8",1
same,Assigned classification CYP3A4,"[5]; Lab 3, batch 0 6 A",1
same,Assigned classification CYP3A4,"[5]; Lab 3, batch 4 0 8",1
same,Assigned classification CYP3A4,"[5]; Lab 3, batch 8 0 8",1
same,Prediction in vivo inducer,"[6]; CYP2B6, HepaRG cells, listed as Phenytoin",Yes
same,Prediction in vivo inducer,"[6]; CYP2B6, HepaRG cells, listed as phenytoin",correctly classified
same,F2,"[6]; CYP2B6, HepaRG cells, in vitro concentration producing 2-fold induction",1.35 µM
same,Induction in vitro,"[6]; CYP2B6, HepaRG cells, positive in one batch in each of the three laboratories",Yes
same,Assigned classification CYP2B6,"[6]; Lab 1, batch 20",1
same,Assigned classification CYP2B6,"[6]; Lab 1, batch 35",1
same,Assigned classification CYP2B6,"[6]; Lab 1, batch 36",1
same,Assigned classification CYP2B6,"[6]; Lab 2, batch 20",1
same,Assigned classification CYP2B6,"[6]; Lab 2, batch 35",1
same,Assigned classification CYP2B6,"[6]; Lab 2, batch 36",1
same,Assigned classification CYP2B6,"[6]; Lab 3, batch 20",1
same,Assigned classification CYP2B6,"[6]; Lab 3, batch 35",1
same,Assigned classification CYP2B6,"[6]; Lab 3, batch 36",1
same,Induction in vivo,"[7]; CYP2B6, human in vivo reference classification",Yes
same,Induction in vivo,"[7]; CYP2B6, human, ref Table 1",Yes
same,CYP induction in vivo literature reference: CYP2B6,[7]; [14],CYP2B6
same,Prediction in vivo inducer,"[8]; CYP1A2, PHH, listed as Phenytoin",Yes
same,Prediction in vivo inducer,"[8]; CYP1A2, PHH, listed as phenytoin",correctly predicted CYP1A2 induction
same,F2,"[8]; CYP1A2, PHH, in vitro concentration producing 2-fold induction",16.2 to 48.6 µM
same,Induction in vitro,"[8]; CYP1A2, PHH, positive in one donor in each of the three laboratories",Yes
same,Assigned classification CYP1A2,"[8]; Lab 1, batch 0 6 A",1
same,Assigned classification CYP1A2,"[8]; Lab 1, batch 4 0 8",0
same,Assigned classification CYP1A2,"[8]; Lab 1, batch 8 0 8",0
same,Assigned classification CYP1A2,"[8]; Lab 2, batch 0 6 A",1
same,Assigned classification CYP1A2,"[8]; Lab 2, batch 4 0 8",0
same,Assigned classification CYP1A2,"[8]; Lab 2, batch 8 0 8",0
same,Assigned classification CYP1A2,"[8]; Lab 3, batch 0 6 A",1
same,Assigned classification CYP1A2,"[8]; Lab 3, batch 4 0 8",1
same,Assigned classification CYP1A2,"[8]; Lab 3, batch 8 0 8",0
same,Cmax,"[9]; human in vivo plasma concentration, normal dose",40 to 80 µM
same,Cmax,"[9]; human in vivo, normal dose (Table 10)",40 to 80 µM
same,F2,"[10]; CYP2B6, PHH",0.60 to 48.6 µM
same,Induction in vitro,"[10]; CYP2B6, PHH",Yes
same,Prediction in vivo inducer,"[10]; CYP2B6, PHH",Yes
same,Prediction in vivo inducer,"[10]; CYP2B6, PHH, Cmax/F2 >0.5 criterion",positive
same,Assigned classification CYP2B6,"[10]; Lab 1, batch 0 6 A",1
same,Assigned classification CYP2B6,"[10]; Lab 1, batch 4 0 8",1
same,Assigned classification CYP2B6,"[10]; Lab 1, batch 8 0 8",0
same,Assigned classification CYP2B6,"[10]; Lab 2, batch 0 6 A",1
same,Assigned classification CYP2B6,"[10]; Lab 2, batch 4 0 8",1
same,Assigned classification CYP2B6,"[10]; Lab 2, batch 8 0 8",0
same,Assigned classification CYP2B6,"[10]; Lab 3, batch 0 6 A",1
same,Assigned classification CYP2B6,"[10]; Lab 3, batch 4 0 8",1
same,Assigned classification CYP2B6,"[10]; Lab 3, batch 8 0 8",1
same,Induction in vivo,"[11]; CYP3A4, human in vivo reference classification (Table 11)",Yes
same,CYP induction in vivo literature reference: CYP3A4,[11]; [14],CYP3A4
same,F2,"[12]; CYP3A4, HepaRG cells",12.2 µM
same,Induction in vitro,"[12]; CYP3A4, HepaRG cells",Yes
same,Prediction in vivo inducer,"[12]; CYP3A4, HepaRG cells",Yes
same,Assigned classification CYP3A4,"[12]; Lab 1, batch 20",1
same,Assigned classification CYP3A4,"[12]; Lab 1, batch 35",1
same,Assigned classification CYP3A4,"[12]; Lab 1, batch 36",1
same,Assigned classification CYP3A4,"[12]; Lab 2, batch 20",1
same,Assigned classification CYP3A4,"[12]; Lab 2, batch 35",1
same,Assigned classification CYP3A4,"[12]; Lab 2, batch 36",1
same,Assigned classification CYP3A4,"[12]; Lab 3, batch 20",1
same,Assigned classification CYP3A4,"[12]; Lab 3, batch 35",1
same,Assigned classification CYP3A4,"[12]; Lab 3, batch 36",1
same,HepaRG medium stability,"[13]; Lab 1, visual observation",40 µg/mL
same,HepaRG medium stability,"[13]; Lab 2, visual observation",20 µg/mL
same,HepaRG medium stability,"[13]; Lab 3, visual observation",40 µg/mL
same,PHH medium stability,"[13]; Lab 4, visual observation",40 µg/mL
same,PHH medium stability,"[13]; Lab 5, visual observation",20 µg/mL
same,PHH medium stability,"[13]; Lab 6, visual observation",10 µg/mL
